Results: patent US8362236B2, “Macrocyclic compound” (Chugai Seiyaku Kabushiki Kaisha, priority 2007, dated 2013)
Where “and” joins values, the source holds several entries; their conditions need not be identical. Identical values can stand only once. Like-named read-outs stand apart in the source and are kept apart here.

Experiments:
HCT116 cells = assay: Measurement of cell growth inhibition (Cell Counting Kit-8, four days); settings: Homo sapiens, HCT-116, 96 h, read-out: Cell growth-inhibiting activity (IC50, μM) Colon cancer HCT116, HCT116 colon cancer cell line, four days culture;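 further: cells exposed to a range of test concentrations at 37 °C in 5% CO2 for four days, then growth read as absorbance with Cell Counting Kit-8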
Procedure: Cells were maintained under conditions recommended by the provider of each cell line. Cells suspended in a medium were added to solutions containing various concentrations of the test substance, and the cells were cultured at 37° C. in a 5% CO2 incubator. Four days later, Cell Counting Kit-8 was added, and absorbance measurements were taken following the protocol included in the kit.

Human HSP90 alpha = target: T1, Human HSP90 alpha (Homo sapiens, UniProt P07900); assay: Assay for the activity of inhibiting HSP90 enzyme (ATPase, malachite green); format: biochemical; settings: purified human HSP90 alpha, 1 mM ATP added, 37° C. for two hours, OD655
T1 construct: His tag (inferred from purification on a HisPrep FF column); made in house; host or cells: E. coli BL21 codon plus (Stratagene)
Procedure: Introduction of pETHuHSP90a into E. coli (BL21 codon plus; Stratagene) was followed by O/N incubation in the presence of 0.1 mM IPTG, and the collected E. coli cells were disrupted by ultrasonication in a Lysis buffer (50 mM Tris-HCl (pH8.0), 10 mM MgCl2, 0.1% Triton X-100, Protease inhibitor cocktail tablets (Roche Diagnostics)). The cell lysate solution was centrifuged (10,000 rpm×30 minutes), and the supernatant obtained after centrifugation was used as a crude extract. The crude extract was fractionated using HisPrep FF column and HiTrap Q column (Amersham) to prepare a purified enzyme solution.
An enzyme solution for assays was prepared by dilution of the purified enzyme solution using an assay buffer (50 mM Tris HCl pH7.6, 20 mM KCl, 5 mM MgCl2).
10 μL each of various concentrations of the test substances (10% DMSO solution) was added to each well, and for the positive control wells, 10 μL of 10% DMSO was added. 10 μL of 10% DMSO was also added to the negative control well.
10 μL of 1 mM ATP was added to all of the wells, and the reaction was carried out at 37° C. for two hours.

[1] = read-out: Enzyme-inhibiting activity (IC50, μM) Human HSP90α

Row | Compound | IC50 (HCT116 cells) [µM] | IC50 (Human HSP90 alpha; [1]) | IC50 (Human HSP90 alpha; Enzyme-inhibiting activity (IC50, μM) Human HSP90α)
1 | Cc1cc(C)c2cc1C(=O)NCCC[C@@H](C(=O)NCCO)NC(=O)CCSc1cc-2nc(N)n1 [Compound 46, (S)-4-amino-19,21-dimethyl-10,17-dioxo-7-thia-3,5,11,16-tetraazatricyclo[16.3.1.1^2,6]tricosa-1(21),2,4,6(23),18(22),19-hexaene-12-carboxylic acid (2-hydroxyethyl)amide] | > 10 | 1.1 µM | 
2 | Cc1cc(C)c2cc1C(=O)NCCC[C@@H](C(=O)NCC(O)CO)NC(=O)CCSc1cc-2nc(N)n1 (stereo partly drawn) [Compound 48, (S)-4-amino-19,21-dimethyl-10,17-dioxo-7-thia-3,5,11,16-tetraazatricyclo[16.3.1.1^2,6]tricosa-1(21),2,4,6(23),18(22),19-hexaene-12-carboxylic acid (2,3-dihydroxypropyl) amide] | > 10 | 0.8 µM | 
3 | COC(=O)[C@@H]1CCNC(=O)CCSc2cc(nc(N)n2)-c2cc(c(C)cc2C)C(=O)N1 [Compound 63, (S)-4-amino-18,20-dimethyl-10,16-dioxo-7-thia-3,5,11,15-tetraazatricyclo[15.3.1.1^2,6]docosa-1(20),2(22),3,5,17(21),18-hexaene-14-carboxylic acid methyl ester] | 0.2 | 2.8 µM | 
4 | CNC(=O)[C@@H]1CCNC(=O)CCSc2cc(nc(N)n2)-c2cc(c(C)cc2C)C(=O)N1 [Compound 65, (S)-4-amino-18,20-dimethyl-10,16-dioxo-7-thia-3,5,11,15-tetraazatricyclo[15.3.1.1^2,6]docosa-1(20),2(22),3,5,17(21),18-hexaene-14-carboxylic acid methylamide] | 9 | 2.8 µM | 
5 | COCCNC(=O)[C@@H]1CCNC(=O)CCSc2cc(nc(N)n2)-c2cc(c(C)cc2C)C(=O)N1 [Compound 66, (S)-4-amino-18,20-dimethyl-10,16-dioxo-7-thia-3,5,11,15-tetraazatricyclo[15.3.1.1^2,6]docosa-1(20),2(22),3,5,17(21),18-hexaene-14-carboxylic acid (2-methoxyethyl) amide] | > 10 | 2.5 µM | 
6 | Cc1cc(C)c2cc1C(=O)N[C@H](C(=O)N(C)C)CCNC(=O)CCSc1cc-2nc(N)n1 [Compound 67, (S)-4-amino-18,20-dimethyl-10,16-dioxo-7-thia-3,5,11,15-tetraazatricyclo[15.3.1.1^2,6]docosa-1(20),2(22),3,5,17(21),18-hexaene-14-carboxylic acid dimethylamide] | > 5 | 5.5 µM | 
7 | Cc1cc(C)c2cc1C(=O)N[C@H](CO)CCNC(=O)CCSc1cc-2nc(N)n1 [Compound 68, (S)-4-amino-14-hydroxymethyl-18,20-dimethyl-7-thia-3,5,11,15-tetraazatricyclo[15.3.1.1^2,6]docosa-1(20),2(22),3,5,17(21),18-hexaene-10,16-dione] | 7.1 | 1.7 µM | 
8 | COC(=O)[C@H]1CCNC(=O)c2cc(c(C)cc2C)-c2cc(nc(N)n2)SCCC(=O)N1 [Compound 69, (R)-4-amino-18,20-dimethyl-10,16-dioxo-7-thia-3,5,11,15-tetraazatricyclo[15.3.1.1^2,6]docosa-1(20),2,4,6(22),17(21),18-hexaene-12-carboxylic acid methyl ester] | 3.2 | 2.9 µM | 
9 | Cc1cc(C)c2cc1C(=O)NCC[C@@H](C(=O)N1CCOCC1)NC(=O)CCSc1cc-2nc(N)n1 [Compound 70, (S)-4-amino-18,20-dimethyl-12-(morpholine-4-carbonyl)-7-thia-3,5,11,15-tetraazatricyclo[15.3.1.1^2,6]docosa-1(20),2,4,6(22),17(21),18-hexaene-10,16-dione] | > 10 | 2.7 µM | 
10 | Cc1cc(C)c2cc1C(=O)NCC[C@@H](CN1CCOCC1)NC(=O)CCSc1cc-2nc(N)n1 [Compound 71, (S)-4-amino-18,20-dimethyl-12-morpholin-4-ylmethyl-7-thia-3,5,11,15-tetraazatricyclo[15.3.1.1^2,6]docosa-1(20),2(22),3,5,17(21),18-hexaene-10,16-dione] | 9.1 | 2.9 µM | 
11 | Cc1cc(C)c2cc1C(=O)NCC1(CNC(=O)CCSc3cc-2nc(N)n3)COC1 [Compound 72] | 1 | 2.2 µM | 
12 | Cc1cc(C)c2cc1C(=O)NCCC(N)C(=O)NCCSc1cc-2nc(N)n1 (centres unmarked) [Compound 73, 4,12-diamino-18,20-dimethyl-7-thia-3,5,10,15-tetraazatricyclo[15.3.1.1^2,6]docosa-1(20),2(22),3,5,17(21),18-hexaene-11,16-dione] | 0.5 | 2.3 µM | 
13 | CC(=O)NC1CCNC(=O)c2cc(c(C)cc2C)-c2cc(nc(N)n2)SCCNC1=O (centres unmarked) [Compound 74, N-(4-amino-18,20-dimethyl-10,16-dioxo-7-thia-3,5,10,15-tetraazatricyclo[15.3.1.1^2,6]docosa-1(20),2(22),3,5,17(21),18-hexaen-12-yl)acetamide] | 5.7 | 2.3 µM | 
14 | Cc1cc(C)c2cc1C(=O)NCCC(NC(=O)C(F)(F)F)C(=O)NCCSc1cc-2nc(N)n1 (centres unmarked) [Compound 75, N-(4-amino-18,20-dimethyl-11,16-dioxo-7-thia-3,5,10,15-tetraazatricyclo[15.3.1.1^2,6]docosa-1(20),2(22),3,5,17(21),18-hexaen-12-yl)-2,2,2-trifluoroacetamide] | 0.5 | 1.9 µM | 
15 | Cc1cc(C)c2cc1C(=O)NCCC(NC(=O)[C@H](N)C(C)C)C(=O)NCCSc1cc-2nc(N)n1 (some centres unmarked) [Compound 76] | 5 | 4.3 µM and 6.2 µM | 
16 | Cc1cc(C)c2cc1C(=O)NCCC(NC(=O)[C@H](N)Cc1ccc(O)cc1)C(=O)NCCSc1cc-2nc(N)n1 (some centres unmarked) [Compound 77] | 6.5 |  | 5 µM and 3.4 µM
17 | Cc1cc(C)c2cc1C(=O)NCCC(N(C)C)C(=O)NCCSc1cc-2nc(N)n1 (centres unmarked) [Compound 78, 4-amino-12-dimethylamino-18,20-dimethyl-7-thia-3,5,10,15-tetraazatricyclo[15.3.1.1^2,6]docosa-1(20),2(22),3,5,17(21),18-hexaene-11,16-dione] | 0.5 | 2.8 µM | 
18 | Cc1cc(C)c2cc1C(=O)NCCCC(=O)N(CCO)CCSc1cc-2nc(N)n1 [Compound 79, 4-amino-10-(2-hydroxyethyl)-18,20-dimethyl-7-thia-3,5,10,15-tetraazatricyclo[15.3.1.1^2,6]docosa-1(20),2(22),3,5,17(21),18-hexaene-11,16-dione] | 0.4 | 3 µM | 
19 | COCCN1CCSc2cc(nc(N)n2)-c2cc(c(C)cc2C)C(=O)NCCCC1=O [Compound 80, 4-amino-10-(2-methoxyethyl)-18,20-dimethyl-7-thia-3,5,10,15-tetraazatricyclo[15.3.1.1^2,6]docosa-1(20),2(22),3,5,17(21),18-hexaene-11,16-dione] | 0.2 | 2.5 µM | 
20 | Cc1cc(C)c2cc1C(=O)NCCCC(=O)N(CCN1CCOCC1)CCSc1cc-2nc(N)n1 [Compound 81, 4-amino-10-(2-morpholin-4-ylethyl)-18,20-dimethyl-7-thia-3,5,10,15-tetraazatricyclo[15.3.1.1^2,6]docosa-1(20),2(22),3,5,17(21),18-hexaene-11,16-dione] | 1.1 | 3 µM | 
21 | Cc1cc(C)c2cc1C(=O)NCCCC(=O)N(C)CCSc1cc-2nc(N)n1 [Compound 82, 4-amino-10,18,20-trimethyl-7-thia-3,5,10,15-tetraazatricyclo[15.3.1.1^2,6]docosa-1(20),2(22),3,5,17(21),18-hexaene-11,16-dione] | 0.2 | 2.5 µM | 
22 | Cc1cc(C)c2cc1C1=N[C@@H](CCNC(=O)CCSc3cc-2nc(N)n3)CO1 [Compound 83, (S)-4-amino-19,21-dimethyl-10-oxo-7-thia-16-oxa-3,5,11,24-tetraazatetracyclo[16.3.1.1^2,6.1^7,10]tetracosa-1(22),2(23),3,5,17(24),19,21-heptaen-10-one] | 0.4 | 2.8 µM | 
